Reference: patent US3941795A, “α-ARYL-4-SUBSTITUTED PIPERIDINOALKANOL DERIVATIVES” (Richardson-Merrell Inc., priority 1974, dated 1976)

System: wheals induced by intradermal injections on 1γ of histamine
Assay: reduction by 50% of wheals induced by intradermal injections of histamine into guinea pigs (antihistamine)
Type: in vivo
Settings: Cavia porcellus, po, 1 h, orally administered one hour prior to the histamine injection, 1γ of histamine intradermal, read-out: ED50 (amount required to reduce by 50% wheals induced by intradermal injections of histamine)
Source text: To illustrate the utility of the compounds of this invention the following tabulation indicates the amount of certain representative compounds of this invention required to reduce by 50% wheals induced by intradermal injections on 1γ of histamine into guinea pigs. Each compound was orally administered one hour prior to the histamine injection.

Structure (SMILES) | ED50 [mg/kg]
CC(C)(C)c1ccc(C(O)CCCN2CCC(C(O)(c3ccccc3)C3CCCCC3)CC2)cc1.Cl (stereo not drawn) [4-(α-cyclohexyl-α-hydroxybenzyl)-α-(p-tert-butylphenyl)-1-piperidinebutanol hydrochloride] | 12
COc1ccccc1C(=C1CCN(CCCC(O)c2ccc(C(C)(C)C)cc2)CC1)c1ccccc1 (stereo not drawn) [4-[4-[α-(o-Anisyl)benzylidene]-α-(p-tert-butylphenyl)-1-piperidinebutanol]] | 4.4
